Reference: patent US3954793A, “1-(2-Propynyl)-1 H-indazole compounds” (priority 1973, dated 1976)
Values joined by “and” are separate entries in the source; they are usually repeats but may differ in a detail not shown here. Equal entries are not always repeated.

What was measured:
[1] = test system: Wilson strain house flies; assay type: in vivo, Wilson strain (susceptible); settings: for Contact Synergistic Ratio, Pyrolan: LC50 pyrolan alone / LC50 with synergist, synergist to insecticide 5:1 by weight; for Contact Synergistic Ratio, Carbaryl: in vivo
Protocol: The required solutions of the insecticide and of the synergist compound were prepared in acetone at a concentration of 1 milligram per milliliter. One-pint wide mouth glass jars were coated with the appropriate insecticide-synergist combination by rolling the jars containing aliquots of the appropriate solutions diluted to three milliliters with acetone to deposit, by evaporation, a film of the test materials. The flies were transferred under carbon dioxide anesthesia and held in the jar at room temperature. Perforated aluminum foil was used to cover the jars and to hold cotton saturated with 10% sugar solution. Counts were made at intervals, but the recorded mortality was based on 24-hour kill, rather than knockdown. All prostrate non-moving flies were considered dead. A determination was then made of the contact synergistic ratio [SR], which is the ratio of the LC50 of insecticide alone to the LC50 of the insecticide when applied together with the synergist. The LC50 of the insecticide was estimated from a log-probit plot of percent kill versus dosage. […] The LC50 of the combination of insecticide and synergist was determined at a synergist to insecticide parts by weight ratio of five to one.

[2] = test system: Swiss albino, white male mice; test: acute toxicity and synergism of acute toxicity in mice; assay type: in vivo; settings: 48 hours; for Lethality, Dimetilan alone (number of mice dead) / number of mice dead, with Dimetilan: eight mice; for number of mice dead, with Dimetilan: Dimetilan 8 + synergist 240 mg/kg i.p.
Protocol: To determine the acute toxicity of dimetilan alone, eight dosage levels of Dimetilan, ranging from 4 to 32 mg per kg were applied to eight, Swiss, albino, white, male mice per dosage level. The mice weighed approximately 23 to 27 grams and were five to six weeks old. The Dimetilan was administered intraperitoneally in 0.1 ml of corn oil one hour after the administration of the same dose of corn oil alone.
To determine the acute toxicity of the synergist alone, various synergists were administered intraperitoneally at a dose of 1000 mg/kg to each of a group of eight mice. The number of animals dead at the end of 72 hours is reported in the left hand column of Table XXXXVI.
The synergism of the acute toxicity of Dimetilan by various synergists was determined by tests on Swiss albino, white male mice aged five to six weeks and weighing 23 to 27 grams. The synergists and insecticides were dissolved in corn oil and the drugs were dissolved in distilled water. All compounds were administered intraperitoneally by injection in the lower quadrent of the abdomen. The synergist was administered in 0.1 ml of corn oil one hour prior to administration of the insecticide. Eight mice were treated, per dosage, with each synergist. The mice were watched for a minimum of 6 hours while held in a glass jar with bedding individually after intraperitoneal injection of the test solutions. Lethality was noted, the animals were weighed and transferred in cages, and food and water were supplied. Control mice were given 0.1 ml of corn oil at the time of administration of the synergist to the test mice and 0.1 ml corn oil plus Dimetilan at the time of administration of the insecticide to the test mice.
By the same procedure, the synergism of acute toxicity of GS 13005, Secobarbital and 6-dimethylamino-4,4-diphenyl-3-heptanone [Methadone] was determined.

[3] = test system: polyvalent resistant (CH strain) houseflies; test: whole plant or invertebrate; assay type: in vivo
Protocol: The effect of O-(2-propynyl) oximes with Dimetilan and with GS 13798 was obtained from tests on polyvalent resistant (CH strain) houseflies that had been chilled and to the dorsal region of which was applied an acetone solution of synergist and insecticide at a ratio of two to one. Duplicate tests were performed using 10 four to five-day old female houseflies per test. After dosage, the flies were put in a plastic petri dish with cotton soaked in a sugar-water solution. These doses of insecticide used without synergist caused 10-40% mortality.
(§1) In Table IX, and in the tables following it, the doses of topically applied insecticides and of synergists unless otherwise noted are expressed as micrograms per fly (μg/fly).
The effect of compounds II-C, II-D and II-E with Dimetilan and GS 13798 was determined, following the procedure of Example 5, from tests on polyvalent resistant (CH strain) houseflies. These doses of insecticide used without synergist caused 10-40% mortality.
(§2) The synergistic effect with GS 13005 of compounds I-A, I-B, I-D, I-E, I-F, I-G and I-I was determined from topical application tests to IN/WHO strain, Rutgers A strain and polyvalent CH strain houseflies using the procedures of Example 5. The percent kills of the IN/WHO strain flies after 24 hours are shown in Table XXVIII; of the Rutgers A strain, in Table XXIX; and of the polyvalent CH strain, in Table XXX. The doses of insecticide alone to the CH strain files caused 10-40% mortality.
(§3) The synergistic effect with Diazinon and GS 13005 of various of the benzyl 2-propynyl ethers identified in Tables II and IIa was determined by topical application tests on IN/WHO strain, and Rutgers A strain and polyvalent, resistant, CH strain houseflies using the procedures of Example 5. The percent kills after 24 hours of IN/WHO strain flies are shown in Table XXXI; of Rutgers A strain flies, in Table XXXII; and of CH strain flies, in Table XXXIII. The doses of insecticide alone to the CH strain flies caused 10-40% mortality.
The synergistic effect with pyrethrum of various synergist compounds was determined by topical application tests on polyvalent, resistant CH strain houseflies following the procedure of Example 5. Application of the insecticide alone caused 10-40% mortality.

[4] = test system: IN/WHO strain house flies; test: topical application, percent kill after 24 hours, susceptible IN/WHO strain; assay type: in vivo, female)
Protocol: as §1
(§4) The synergistic effect of O-(2-propynyl) oximes with mobam was determined from topical application tests on susceptible, female, IN/WHO strain house flies and from tests on resistant, female, Rutgers A strain house flies. The synergist and insecticide were dissolved in ACS Grade acetone in such quantities that a 1.0 μ liter volume applied to the thorax of 3-to-5 day old CO2 -anesthetized female adult house flies contained the desired dosage. After being treated, the flies were confined, 10 to a plaster petri dish, with 3-5 dishes/treament, and held for 24-hr. observation of mortality. Reconstituted skim milk on cotton dental wicks was provided during the holding period. The percent kills after 24 hours are shown in Table X for the IN/WHO strain and Table XI for the Rutgers A strain.
(§5) The synergistic effect of benzyl 2-propynyl ethers with mobam was determined from topical application tests on IN/WHO and Rutgers A strain houseflies, following the procedure of Example 5. The percent kills after 24 hours are shown in Table XIV for the IN/WHO strain and in Table XV for the Rutgers A strain.
The effects of varying the insecticide dose and the synergist-insecticide ratio are further illustrated, with synergist compounds II-D, II-E, II-F and Mobam insecticide, in Tables XVI, XVII and XVIII. […]
The effect on IN/WHO flies of synergist compound IV-C, identified in Table IV, with mobam was determined by the topical application procedure of Example 5. […]
as §2
as §3, with “mortality. […]” for “mortality.”
(§6) The synergistic effect on IN/WHO strain flies and Rutgers A strain flies of compound IV-C with GS 13005 and with Diazinon was determined by the topical application procedure of Example 5. The percent kills of IN/WHO strain flies after 24 hours are shown in Tables XXXVI and XXXVII; the percent kills of Rutgers A strain flies are shown in Tables XXXVIII and XXXIX.

[5] = test system: Rutgers A strain house flies; test: topical application, percent kill after 24 hours, resistant Rutgers A strain; assay type: in vivo, female)
Protocol: as §1, §4, §5
The synergistic effect with Diazinon of compounds I-B, I-D, I-F, I-G, I-H and I-I, identified in Tables I and Ia, was determined from topical application tests on IN/WHO strain houseflies and on Rutgers A strain houseflies by the procedure of Example 5. The percent kills after 24 hours are shown in Table XXV for the IN/WHO strain and Table XXVI for the Rutgers A strain.
as §2, §3, §6

[6] = test system: male mice; test: extension of sleeping time of depressant drugs by synergists; assay type: in vivo, male mice (Swiss albino white); settings: for Mean Sleeping Time, Noludar / Relative Sleeping Time, Noludar: Noludar 110 mg/kg; for Mean Sleeping Time, Noludar / Mean Sleeping Time, Secobarbital: synergist 110 mg/kg one hour prior; for Relative Sleeping Time, Noludar / Relative Sleeping Time, Secobarbital: synergist 110 mg/kg, treated/control; for Mean Sleeping Time, Secobarbital / Relative Sleeping Time, Secobarbital: Secobarbital 37 mg/kg
Protocol: The selectivity of the synergist compounds of this invention is illustrated by the results of sleeping-time extension tests and of acute toxicity tests on Swiss albino white male mice.
The effect of various synergist compounds on sleeping time of sodium secobarbital [Secobarbital] and of 3,3-diethyl-5-methyl-2,4-dioxypiperidine [Noludar] was determined by administering the drug, with and without synergist, to approximately 38-day old male mice weighing from 25 to 30 grams. Synergists were administered in each of two doses, 74.0 mg/kg (dilution being 2.0 mg/0.1 ml corn oil), and 110.0 mg/kg (dilution 3.0 mg/0.1 ml oil). Secobarbital was administered at a dose of 37.0 mg/kg (dilution 1.0 mg/0.1 ml water). Noludar was administered at a dose of 110.0 mg/kg (dilution 3.0 mg/0.1 ml water). The synergist was administered one hour prior to administration of the Secobarbital or Noludar. Secobarbital and Noludar sleeping times were obtained for both the control (drug only) and the treated (synergist plus drug) mice by noting the time lapse between the administration of the drug and the recovery of the righting reflex, i.e. when the animal regains conciousness and can walk up an inclined wooden tray with coordination. The relative sleeping time (R.S.) was noted. The R.S. is the extended sleeping time in the treated mice (synergist plus drug) divided by the sleeping time in the control mice (drug only). The mean sleeping time for the treated mice and the R.S. are shown on Table XXXXIV for various synergist compounds.

[7] = Dimetilan 8 mg/kg, oil in place of synergist
[8] = insecticide alone at the doses of the CH strain tables, 1440 min

`Cc1cc(OC(=O)N(C)C)nn1C(=O)N(C)C` [Dimetilan, 1-(dimethylcarbamoyl)-5-methyl-3-pyrazolyl dimethylcarbamate, reference compound] was tested, and the “lethality to the common house fly, in words” value ([1]; insecticide alone, common house fly) was “relatively lethal”, the “Lethality, Dimetilan alone (number of mice dead)” value (“Lethality, Dimetilan alone” below) ([2]; 4.0 mg/kg i.p.) was 0 and the “Lethality, Dimetilan alone” value ([2]; 8.0 mg/kg i.p.) was 0. The “Lethality, Dimetilan alone” value ([2]; 12.0 mg/kg i.p.) was 1, the “Lethality, Dimetilan alone” value ([2]; 16.0 mg/kg i.p.) was 3 and the “Lethality, Dimetilan alone” value ([2]; 20.0 mg/kg i.p.) was 4. For the same compound, the “Lethality, Dimetilan alone” value ([2]; 24.0 mg/kg i.p.) was 7, the “Lethality, Dimetilan alone” value ([2]; 28.0 mg/kg i.p.) was 8 and the “Lethality, Dimetilan alone” value ([2]; 32.0 mg/kg i.p.) was 8. For the same compound, the “number of mice dead, Dimetilan control (0.1 ml oil), 80 mg/kg” value [2, 7] was 0, the “number of mice dead, Dimetilan control (0.1 ml oil), 240 mg/kg” value [2, 7] was 0 and the “dose level just below that at which Dimetilan alone showed lethality to the mice” value ([2]; i.p.) was 8 mg/kg. The “mortality, insecticide used without synergist” value [3, 8] was 10-40% and the “24 hour percent mortality, Dimetilan alone” value ([4]; Dimetilan 0.031 μg/fly) was 0%.

For `CCOP(=S)(OCC)Oc1cc(C)nc(C(C)C)n1` [Diazinon, O,O-diethyl O-(2-isopropyl-4-methyl-6-pyrimidyl) phosphorothioate, reference compound], the “mortality, insecticide used without synergist” value ([3]; house fly, in vivo, topical or ocular, 24 h) was 10-40%, the “percent kill after 24 hours, Diazinon alone” value (shortened to “percent kill after 24 hours”) ([4]; Diazinon 0.02, synergist 0 μg/fly) was 3% and the “percent kill after 24 hours” value ([4]; Diazinon 0.03, synergist 0 μg/fly, 1440 min) was 0% and 5%. For the same compound, the “percent kill after 24 hours” value ([5]; Diazinon 1.0, synergist 0 μg/fly) was 0% and the “percent kill after 24 hours” value ([5]; Diazinon 1.5, synergist 0 μg/fly, 1440 min) was 3% and 0%.

In the case of `C#CCn1ncc2cc([N+](=O)[O-])ccc21` [III-A], the “Contact Synergistic Ratio, Pyrolan” value [1] is reported as 30, the “Contact Synergistic Ratio, Carbaryl” value [1] is reported as 143 and the “number of mice dead, with Dimetilan” value [2] is reported as 0. The “Mean Sleeping Time, Noludar” value [6] was 32 min, the “Relative Sleeping Time, Noludar” value [6] was 1.0 and the “Mean Sleeping Time, Secobarbital” value [6] was 50 min. For the same compound, the “Relative Sleeping Time, Secobarbital” value [6] was 1.1.

For `C#CCn1nc(Cl)c2ccccc21` [III-B], the “Contact Synergistic Ratio, Pyrolan” value [1] was 30, the “Contact Synergistic Ratio, Carbaryl” value [1] was 117 and the “number of mice dead, with Dimetilan” value [2] was 0. The “Mean Sleeping Time, Noludar” value [6] was 46 min, the “Relative Sleeping Time, Noludar” value [6] was 1.0 and the “Mean Sleeping Time, Secobarbital” value [6] was 66 min. For the same compound, the “Relative Sleeping Time, Secobarbital” value [6] was 1.3.

In the case of `CNC(=O)Oc1cccc2ccc(C)nc12` [GS 13798, 8-(2-methylquinolyl)-N-methylcarbamate, reference compound], the “mortality, insecticide used without synergist” value [3, 8] is reported as 10-40%.
